Source: ChEMBL document CHEMBL1140785, “Synthesis, biological evaluation and molecular modelling studies of novel ACD- and ABD-ring steroidomimetics as inhibitors of CYP17” (Bioorg Med Chem Lett, 2008)
pIC50: −log10 of the molar value.

Columns and labels:
[1] = target: T1, Steroid 17-alpha-hydroxylase/17,20 lyase (Homo sapiens, UniProt P05093); test: Inhibition of human CYP17 expressed in Escherichia coli at 0.2 uM
T1 sequence (P05093 whole entry): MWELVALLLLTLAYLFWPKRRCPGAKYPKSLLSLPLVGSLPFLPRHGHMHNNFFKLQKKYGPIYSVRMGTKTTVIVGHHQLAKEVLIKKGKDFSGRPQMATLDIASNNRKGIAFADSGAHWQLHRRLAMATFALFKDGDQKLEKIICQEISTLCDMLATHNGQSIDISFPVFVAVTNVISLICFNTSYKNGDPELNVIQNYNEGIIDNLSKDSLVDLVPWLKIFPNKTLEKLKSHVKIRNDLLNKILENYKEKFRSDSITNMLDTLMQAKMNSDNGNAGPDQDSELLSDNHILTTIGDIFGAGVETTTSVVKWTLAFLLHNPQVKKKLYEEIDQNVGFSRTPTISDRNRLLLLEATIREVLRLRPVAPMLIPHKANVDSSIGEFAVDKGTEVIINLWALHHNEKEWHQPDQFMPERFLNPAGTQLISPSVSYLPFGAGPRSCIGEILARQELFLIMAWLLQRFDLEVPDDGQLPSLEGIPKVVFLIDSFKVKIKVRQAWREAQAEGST

[2] = target: T1, Steroid 17-alpha-hydroxylase/17,20 lyase; test: Inhibition of human CYP17 expressed in Escherichia coli at 2 uM
CYP1A2 [3] = target: T2, CYP1A2 (Homo sapiens, UniProt P05177); test: Inhibition of hepatic CYP1A2 at 1 uM; type: ADME
T2 sequence (P05177 whole entry): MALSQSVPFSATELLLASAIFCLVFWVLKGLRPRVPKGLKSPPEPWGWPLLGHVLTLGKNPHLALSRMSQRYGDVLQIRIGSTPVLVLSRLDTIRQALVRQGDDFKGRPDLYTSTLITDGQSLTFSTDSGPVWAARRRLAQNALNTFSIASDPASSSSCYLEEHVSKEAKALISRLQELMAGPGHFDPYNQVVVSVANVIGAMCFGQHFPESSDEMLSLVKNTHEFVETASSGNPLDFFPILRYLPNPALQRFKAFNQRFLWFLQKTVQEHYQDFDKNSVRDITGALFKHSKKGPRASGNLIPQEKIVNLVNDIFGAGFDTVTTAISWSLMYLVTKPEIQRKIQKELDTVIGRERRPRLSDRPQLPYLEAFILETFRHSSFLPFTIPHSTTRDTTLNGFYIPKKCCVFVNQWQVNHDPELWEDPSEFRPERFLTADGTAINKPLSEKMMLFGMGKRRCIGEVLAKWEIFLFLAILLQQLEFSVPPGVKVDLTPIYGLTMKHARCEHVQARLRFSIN

CYP1A2 [4] = target: T2, CYP1A2; test: Inhibition of hepatic CYP1A2 at 10 uM; type: ADME
CYP2C9 [5] = target: T3, CYP2C9 (Homo sapiens, UniProt P11712); test: Inhibition of hepatic CYP2C9 at 1 uM; type: ADME
T3 sequence (P11712 whole entry): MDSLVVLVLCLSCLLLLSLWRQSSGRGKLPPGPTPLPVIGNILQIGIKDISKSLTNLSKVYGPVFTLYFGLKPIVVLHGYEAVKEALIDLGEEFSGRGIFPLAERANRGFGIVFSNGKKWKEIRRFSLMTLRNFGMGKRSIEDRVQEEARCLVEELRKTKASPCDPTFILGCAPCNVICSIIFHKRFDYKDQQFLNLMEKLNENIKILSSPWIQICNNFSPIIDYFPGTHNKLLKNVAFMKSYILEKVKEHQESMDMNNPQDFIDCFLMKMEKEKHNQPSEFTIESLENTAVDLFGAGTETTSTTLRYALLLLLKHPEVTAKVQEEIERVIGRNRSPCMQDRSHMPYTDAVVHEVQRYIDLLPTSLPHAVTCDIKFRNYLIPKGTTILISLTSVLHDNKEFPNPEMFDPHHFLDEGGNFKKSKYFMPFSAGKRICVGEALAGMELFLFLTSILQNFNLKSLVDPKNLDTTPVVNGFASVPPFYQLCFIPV

CYP2C9 [6] = target: T3, CYP2C9; test: Inhibition of hepatic CYP2C9 at 10 uM; type: ADME
CYP2C19 [7] = target: T4, CYP2C19 (Homo sapiens, UniProt P33261); test: Inhibition of hepatic CYP2C19 at 1 uM; type: ADME
T4 sequence (P33261 whole entry): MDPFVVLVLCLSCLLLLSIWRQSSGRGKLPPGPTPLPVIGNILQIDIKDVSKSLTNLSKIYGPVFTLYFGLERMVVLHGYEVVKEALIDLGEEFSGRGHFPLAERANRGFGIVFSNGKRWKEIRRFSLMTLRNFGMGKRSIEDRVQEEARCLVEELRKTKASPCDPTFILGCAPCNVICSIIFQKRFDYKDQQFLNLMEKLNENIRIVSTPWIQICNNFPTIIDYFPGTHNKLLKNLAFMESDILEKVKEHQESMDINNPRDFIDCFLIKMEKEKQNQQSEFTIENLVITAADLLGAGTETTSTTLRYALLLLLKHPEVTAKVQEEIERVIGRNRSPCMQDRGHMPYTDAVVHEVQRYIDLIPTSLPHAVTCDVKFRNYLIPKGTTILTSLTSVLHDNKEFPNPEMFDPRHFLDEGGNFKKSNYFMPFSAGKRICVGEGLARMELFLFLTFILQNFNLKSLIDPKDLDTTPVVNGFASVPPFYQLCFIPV

CYP2C19 [8] = target: T4, CYP2C19; test: Inhibition of hepatic CYP2C19 at 10 uM; type: ADME
CYP3A4 [9] = target: T5, CYP3A4 (Homo sapiens, UniProt P08684); test: Inhibition of hepatic CYP3A4 at 1 uM; type: ADME
T5 sequence (P08684 whole entry): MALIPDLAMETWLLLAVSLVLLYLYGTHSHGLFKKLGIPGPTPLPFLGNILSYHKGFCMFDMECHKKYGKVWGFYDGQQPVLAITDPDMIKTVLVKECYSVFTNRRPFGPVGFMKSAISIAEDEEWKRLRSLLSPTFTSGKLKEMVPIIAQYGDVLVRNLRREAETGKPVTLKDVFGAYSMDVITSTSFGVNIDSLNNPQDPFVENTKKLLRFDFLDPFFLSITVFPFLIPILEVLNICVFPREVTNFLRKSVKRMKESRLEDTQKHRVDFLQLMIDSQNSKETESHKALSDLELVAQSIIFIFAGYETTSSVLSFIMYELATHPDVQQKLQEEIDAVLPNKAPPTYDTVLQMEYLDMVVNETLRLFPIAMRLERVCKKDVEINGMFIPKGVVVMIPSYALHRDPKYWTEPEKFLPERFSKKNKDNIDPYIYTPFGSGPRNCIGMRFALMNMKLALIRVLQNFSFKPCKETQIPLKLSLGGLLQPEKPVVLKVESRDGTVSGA

CYP3A4 [10] = target: T5, CYP3A4; test: Inhibition of hepatic CYP3A4 at 10 uM; type: ADME
[11] = target: T1, Steroid 17-alpha-hydroxylase/17,20 lyase; test: Inhibition of human CYP17 expressed in Escherichia coli
CYP3A4 [12] = target: T5, CYP3A4; test: Inhibition of hepatic recombinant CYP3A4 at 10 uM; type: ADME
CYP2D6 [13] = target: T6, CYP2D6 (Homo sapiens, UniProt P10635); test: Inhibition of CYP2D6 at 10 uM; type: ADME
T6 sequence (P10635 whole entry): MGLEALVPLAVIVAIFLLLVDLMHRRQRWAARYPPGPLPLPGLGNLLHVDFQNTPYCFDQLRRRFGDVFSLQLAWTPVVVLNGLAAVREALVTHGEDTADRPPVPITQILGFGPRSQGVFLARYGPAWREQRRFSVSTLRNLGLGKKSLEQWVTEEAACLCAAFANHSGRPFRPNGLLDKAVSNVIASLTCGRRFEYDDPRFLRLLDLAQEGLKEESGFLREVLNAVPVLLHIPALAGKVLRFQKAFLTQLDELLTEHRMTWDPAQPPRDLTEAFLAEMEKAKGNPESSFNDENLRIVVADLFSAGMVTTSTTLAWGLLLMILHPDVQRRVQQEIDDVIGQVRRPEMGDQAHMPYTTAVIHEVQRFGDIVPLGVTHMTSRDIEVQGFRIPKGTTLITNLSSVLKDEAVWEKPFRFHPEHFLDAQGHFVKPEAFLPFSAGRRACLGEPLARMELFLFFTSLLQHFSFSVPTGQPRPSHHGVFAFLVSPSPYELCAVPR

CYP2D6 [14] = target: T6, CYP2D6; test: Inhibition of CYP2D6 at 1 uM; type: ADME
CYP11B1 [15] = target: T7, CYP11B1 (Homo sapiens, UniProt P15538); test: Inhibition of human CYP11B1 expressed in V79Zh11B1 cells at 0.2 uM; type: cell-based, V79; settings: V79Zh11B1 cells expressing human CYP11B1
T7 sequence (P15538 whole entry): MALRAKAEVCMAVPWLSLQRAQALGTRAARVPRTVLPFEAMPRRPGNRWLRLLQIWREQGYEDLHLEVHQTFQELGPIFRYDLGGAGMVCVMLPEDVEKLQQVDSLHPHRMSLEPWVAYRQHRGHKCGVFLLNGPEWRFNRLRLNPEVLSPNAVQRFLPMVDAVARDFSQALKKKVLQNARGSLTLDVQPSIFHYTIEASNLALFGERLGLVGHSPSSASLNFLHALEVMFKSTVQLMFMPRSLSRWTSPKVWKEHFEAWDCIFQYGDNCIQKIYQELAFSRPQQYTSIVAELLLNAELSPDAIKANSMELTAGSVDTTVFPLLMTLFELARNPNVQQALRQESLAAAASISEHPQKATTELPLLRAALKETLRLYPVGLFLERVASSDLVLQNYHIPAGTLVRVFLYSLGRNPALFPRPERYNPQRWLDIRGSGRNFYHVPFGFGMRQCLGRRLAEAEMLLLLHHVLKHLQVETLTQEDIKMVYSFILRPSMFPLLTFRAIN

CYP11B1 [16] = target: T7, CYP11B1; test: Inhibition of human CYP11B1 expressed in V79Zh11B1 cells at 2 uM; type: cell-based; settings: V79Zh11B1 cells expressing human CYP11B1

SMILES | inhibition at 0.2 µM [1] [%] | inhibition at 2 µM [2] [%] | inhibition at 1 µM (CYP1A2 [3]) [%] | inhibition at 10 µM (CYP1A2 [4]) [%] | inhibition at 1 µM (CYP2C9 [5]) [%] | inhibition at 10 µM (CYP2C9 [6]) [%] | inhibition at 1 µM (CYP2C19 [7]) [%] | inhibition at 10 µM (CYP2C19 [8]) [%] | inhibition at 1 µM (CYP3A4 [9]) [%] | inhibition at 10 µM (CYP3A4 [10]) [%] | other results
COc1ccc2cc(-c3cccc(-c4ccncc4)c3)ccc2c1 | 4 | 23 | – | – | – | – | – | – | – | – | –
COc1ccc2cc(-c3ccc(F)cc3)ccc2c1-c1cccnc1 | 6 | 7 | 40 | 87 | 66 | 54 | 68 | 28 | 64 | 86 | –
C[C@]12CC[C@H](O)CC1=CC[C@@H]1[C@@H]2CC[C@]2(C)C(c3cccnc3)=CC[C@@H]12 [ABIRATERONE] | – | – | 36 | 53 | 17 | 51 | 3 | 7 | 7 | 7 | pIC50 [11]: 7.14
Oc1ccc2cc(-c3cccc(-c4ccncc4)c3)ccc2c1 | 31 | 66 | 98 | 98 | 94 | 97 | 86 | 89 | 6 | 19 | inhibition at 10 µM (CYP3A4 [12]): 19%; inhibition at 10 µM (CYP2D6 [13]): 85%; inhibition at 1 µM (CYP2D6 [14]): 80%; inhibition at 0.2 µM (CYP11B1 [15]): 3%; inhibition at 2 µM (CYP11B1 [16]): 23%
COc1ccc2cc(-c3cccc(Cn4ccnc4)c3)ccc2c1 | 0 | 28 | 96 | 97 | 97 | 100 | 95 | 97 | 91 | 96 | –
COc1ccc2cc(-c3cccnc3)ccc2c1-c1ccc(F)cc1 | 0 | 1 | – | – | – | – | – | – | – | – | –
Fc1ccc(-c2ccc3c(-c4cccnc4)cccc3c2)cc1 | 2 | 3 | – | – | – | – | – | – | – | – | –
COc1ccc2cc(-c3ccc(F)cc3)ccc2c1Cn1ccnc1 | 13 | 45 | 80 | 85 | 100 | 100 | 93 | 96 | 93 | 95 | –
Fc1ccc(-c2ccc3cc(Cn4ccnc4)ccc3c2)cc1 | 3 | 14 | – | – | – | – | – | – | – | – | –
Oc1ccc2cc(-c3cccc(-c4cccnc4)c3)ccc2c1 | 0 | 8 | – | – | – | – | – | – | – | – | –
COc1ccc2cc(-c3cccc(-c4cccnc4)c3)ccc2c1 | 3 | 4 | – | – | – | – | – | – | – | – | –
CC(=O)N1CCN(c2ccc(OCC3COC(Cn4ccnc4)(c4ccc(Cl)cc4Cl)O3)cc2)CC1 (stereo not drawn) [KETOCONAZOLE] | – | – | 8 | 38 | 21 | 75 | 24 | 1 | 1 | 4 | –
Fc1ccc(-c2ccc3cc(-c4cccnc4)ccc3c2)cc1 | 0 | 22 | – | – | – | – | – | – | – | – | –
Fc1ccc(-c2ccc3c(-c4ccncc4)cccc3c2)cc1 | 1 | 28 | – | – | – | – | – | – | – | – | –
Fc1ccc(-c2ccc3c(Cn4ccnc4)cccc3c2)cc1 | 2 | 19 | – | – | – | – | – | – | – | – | –
Fc1ccc(-c2cc(Cn3ccnc3)c3ccccc3c2)cc1 | 9 | 50 | – | – | – | – | – | – | – | – | –
Cc1cc(F)ccc1-c1ccc2c(-c3cccnc3)cccc2c1 | 3 | 3 | – | – | – | – | – | – | – | – | –
Oc1ccc2cc(-c3ccc(Cn4ccnc4)cc3)ccc2c1 | 24 | 61 | – | – | – | – | – | – | – | – | –
Oc1ccc2cc(-c3ccc(F)cc3)ccc2c1-c1cccnc1 | 0 | 0 | – | – | – | – | – | – | – | – | –
